From PubChem BioAssay AID743186 (Broad Institute, 2013)
Active and inactive are the calls of the source. The rule behind the calls is not given here.

test system: not listed separately; assay: Confirmatory dose response, tuberculosis growth inhibitors, OD600 plate reader (AID 743186); details: Mycobacterium tuberculosis growth, OD600; at 6 µM (top of the series)

SMILES	growth change, negative = inhibition
O=C(OCc1ccc(Cl)c(Cl)c1)c1ccccn1	-2.92% (inactive)
O=C(CCN1CCC(c2cccs2)=N1)c1cccs1	-5.74% (inactive)
NC(=O)C1(N2CCCCC2)CCN(C2CC(=O)N(CCc3ccccc3)C2=O)CC1 (stereo unspecified)	12.1% (inactive)
NC(=O)COc1ccc2cc(-c3ccc(F)cc3)c(=O)oc2c1	0.842% (inactive)
O=C(NC1CC2CCC1C2)C1COc2ccccc2O1 (stereo unspecified)	-8.57% (inactive)
CCOC(=O)c1c(C)n(C)c2ccc(OC(C)C(=O)OC)cc12 (stereo unspecified)	-3.72% (inactive)
CC(=O)c1ccc(NC(=O)c2cc(CC(C)C)on2)cc1	-8.04% (inactive)
O=C(OCCCCN1C(=O)c2ccccc2C1=O)c1ccc(Br)o1	1.08% (inactive)
CCOC(=O)COc1ccc2c(=O)c(-c3ccccc3)coc2c1	-66.9% (inactive)
O=C(COc1cccc2ccccc12)Nc1nc2ccccc2[nH]1	3.31% (inactive)
CCCOC(=O)c1ccc(NC(=O)c2ccc(Br)o2)cc1	4.84% (inactive)
O=C(COc1c(Br)cc(Br)c2cccnc12)N1CCCCC1	-5.71% (inactive)
Fc1ccc(-c2ccc(CNCc3ccccn3)o2)cc1Cl	-11.2% (inactive)
Clc1cccc(-c2ccc(CNCc3ccccn3)o2)c1	-12.5% (inactive)
CCOC(=O)COc1ccc2c(c1)C(=O)CC1(CCCCC1)O2	-49.6% (inactive)
CCc1ccc(OCCCC(=O)NCc2ccco2)cc1	2.01% (inactive)
CCCC(C)C(=O)Nc1ccc(Cl)cn1 (stereo unspecified)	-8.24% (inactive)
CCOC(=O)COc1ccc2c(=O)cc(-c3ccccc3)oc2c1	-72.2% (inactive)
CCOC(=O)c1sc(NC(=O)CCN2CCOCC2)c(C(=O)OCC)c1C	2.46% (inactive)

test system: Mycobacterium tuberculosis growth, OD600; assay: as above; details: not given

SMILES	AC90
NC1CCN(c2c(F)cc3c(=O)c(C(=O)O)cn(C4CC4)c3c2Cl)C1 (stereo unspecified)	0.176 µM
c1ccc(Nc2nc(-c3ccccn3)cs2)cc1	> 6 µM (inactive)
O=C(NCc1cccs1)c1ccc(Br)o1	> 6 µM (inactive)
Clc1cccc(CNCCNCc2cccc(Cl)c2)c1	> 6 µM (inactive)
Cc1cc(NC(=O)C2CCCCC2)n(-c2nc3ccccc3[nH]2)n1	> 6 µM (inactive)
COC(=O)COc1cccc(NC(=O)c2ccc(Cl)cc2)c1	> 6 µM (inactive)
C=CCn1c(NC(=O)c2ccccc2)nc2ccccc21	> 6 µM (inactive)
Cc1cc(C)n2nc(S(=O)(=O)Nc3c(Cl)cccc3Cl)nc2n1	3.89 µM
Cc1ccc(C)c(-c2csc(NC(=O)c3cnccn3)n2)c1	> 6 µM (inactive)
Cc1nnc(NC(=O)c2ccc3ccccc3c2)o1	2.96 µM
CCCCN(C/C=C/c1ccccc1OC)Cc1ccccc1	> 6 µM (inactive)
COC(=O)COc1ccc2c(=O)c(Oc3ccccc3)c(C)oc2c1	> 6 µM (inactive)
CS(=O)(=O)Cc1nc2ccccc2oc1=O	> 6 µM (inactive)
O=C(Nc1nc2ccccc2[nH]1)c1cccc(Cl)c1	> 6 µM (inactive)
Brc1c(-c2ccc3c(c2)OCO3)nc2ncccn12	5.4 µM
Cc1cccc(C)c1N1C(=O)CC(N2CCSCC2)C1=O (stereo unspecified)	> 6 µM (inactive)
Cc1cccc(Cn2ccc(NC(=O)c3ccc4c(c3)OCO4)n2)c1	1.67 µM
